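All cell lines were grown in 96-well plates and treated with compound for 48 hours. Abbreviation: GI50, concentration required for 50% inhibition of growth.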 Calls of active or inactive are those of the source. Rule as the data show it: active = GI50 up to about 1.1 µM and inactive = higher.
Key:
Assay in all cases: NCI tumour cell line growth inhibition, 48 h
MDA-N = tested on: MDA-N
OVCAR-4 = tested on: OVCAR-4
OVCAR-3 = tested on: OVCAR-3
NCI-H226 = tested on: NCI-H226
HOP-62 = tested on: HOP-62
UACC-62 = tested on: UACC-62
TK-10 = tested on: TK-10
MOLT-4 = tested on: MOLT-4
U-251 = tested on: U-251
UO-31 = tested on: UO-31
LOX IMVI = tested on: LOX IMVI
COLO 205 = tested on: COLO 205
SF-268 = tested on: SF-268
HOP-92 = tested on: HOP-92
NCI-H522 = tested on: NCI-H522
SNB-19 = tested on: SNB-19
SK-MEL-2 = tested on: SK-MEL-2
SK-OV-3 = tested on: SK-OV-3
A498 = tested on: A498

Measured: GI50

COC(=O)C(=O)C(C(=O)C(=O)Nc1ccc(C)cc1C)c1nc2ccc(Cl)cc2nc1O (stereo not given)
inactive: MDA-N > 100 µM | OVCAR-4 > 100 µM | OVCAR-3 > 100 µM | NCI-H226 > 100 µM | HOP-62 > 100 µM | UACC-62 > 100 µM | TK-10 > 100 µM | MOLT-4 > 100 µM | U-251 > 100 µM | UO-31 47.6 µM | LOX IMVI > 100 µM | COLO 205 > 100 µM | SF-268 > 100 µM | HOP-92 > 100 µM | NCI-H522 > 100 µM | SNB-19 > 100 µM | SK-MEL-2 > 100 µM | SK-OV-3 > 100 µM

CCCCC/C(=N\c1[nH]cnc1C(N)=O)OCC
inactive: MDA-N > 100 µM | OVCAR-4 > 100 µM | OVCAR-3 > 100 µM | NCI-H226 > 100 µM | HOP-62 > 100 µM | UACC-62 > 100 µM | TK-10 > 100 µM | MOLT-4 > 100 µM | U-251 > 100 µM | UO-31 55.5 µM | LOX IMVI > 100 µM | COLO 205 > 100 µM | SF-268 > 100 µM | A498 > 100 µM | NCI-H522 75 µM | SNB-19 > 100 µM | SK-MEL-2 > 100 µM | SK-OV-3 > 100 µM

COc1ccc(/C=N/n2c(=O)[nH]c3ccccc3c2=O)cc1
inactive: MDA-N > 100 µM | OVCAR-3 > 100 µM | NCI-H226 > 100 µM | HOP-62 > 100 µM | UACC-62 > 100 µM | TK-10 > 100 µM | MOLT-4 > 100 µM | U-251 > 100 µM | UO-31 > 100 µM | LOX IMVI > 100 µM | COLO 205 > 100 µM | SF-268 > 100 µM | A498 > 100 µM | HOP-92 > 100 µM | SNB-19 > 100 µM | SK-MEL-2 > 100 µM | SK-OV-3 > 100 µM

COc1ccc(C2SC(=N)Nc3c2c(C)nn3C(=O)c2ccncc2)cc1 (stereo not given)
inactive: MDA-N > 100 µM | OVCAR-4 43.3 µM | OVCAR-3 40.4 µM | NCI-H226 > 100 µM | HOP-62 > 100 µM | UACC-62 > 100 µM | TK-10 > 100 µM | MOLT-4 44.5 µM | U-251 > 100 µM | UO-31 > 100 µM | LOX IMVI > 100 µM | COLO 205 57.7 µM | SF-268 > 100 µM | A498 98.4 µM | HOP-92 > 100 µM | SNB-19 > 100 µM | SK-MEL-2 > 100 µM | SK-OV-3 > 100 µM

Cc1cccc(/C(Br)=C2/OC(=O)c3ccccc32)c1
inactive: MDA-N > 100 µM | OVCAR-4 > 100 µM | OVCAR-3 > 100 µM | HOP-62 > 100 µM | UACC-62 > 100 µM | TK-10 > 100 µM | MOLT-4 > 100 µM | U-251 > 100 µM | COLO 205 > 100 µM | SF-268 > 100 µM | A498 > 100 µM | HOP-92 > 100 µM | NCI-H522 > 100 µM | SK-OV-3 > 100 µM

C/C=C\C(CC(=O)NCCC1CN(C(=O)c2ccccc2)c2ccccc21)CC(=O)OC (stereo not given)
inactive: MDA-N > 100 µM | OVCAR-4 > 100 µM | OVCAR-3 > 100 µM | HOP-62 > 100 µM | UACC-62 > 100 µM | TK-10 > 100 µM | MOLT-4 > 100 µM | U-251 > 100 µM | UO-31 > 100 µM | COLO 205 > 100 µM | SF-268 > 100 µM | A498 > 100 µM | HOP-92 > 100 µM | NCI-H522 > 100 µM | SNB-19 > 100 µM | SK-MEL-2 > 100 µM | SK-OV-3 > 100 µM

CC1CC(Nc2ccc(Br)cc2)N(C(=O)c2ccc(Br)cc2)O1 (stereo not given)
inactive: MDA-N 8.93 µM | OVCAR-4 > 10 µM | OVCAR-3 > 10 µM | NCI-H226 > 10 µM | HOP-62 6.49 µM | TK-10 > 10 µM | MOLT-4 5.74 µM | UO-31 2.34 µM | COLO 205 3.49 µM | SF-268 1.25 µM | NCI-H522 8.07 µM | SNB-19 > 10 µM | SK-MEL-2 > 10 µM | SK-OV-3 > 10 µM

O=C(O)c1ccc(Nc2nc3cc(C(F)(F)F)ccc3nc2-c2ccccc2)cc1
inactive: MDA-N 30.6 µM | OVCAR-3 15.2 µM | NCI-H226 25 µM | HOP-62 17.2 µM | UACC-62 10.4 µM | TK-10 15.2 µM | MOLT-4 24.9 µM | U-251 14.9 µM | UO-31 17.1 µM | LOX IMVI 15.2 µM | COLO 205 17.5 µM | SF-268 48.8 µM | NCI-H522 16.3 µM | SNB-19 30.6 µM
